Experimental data reported in US4696912A, “Stabilized compositions” (priority 1986, dated 1987).
Values after ≈ are worked out from the molar mass of the structure shown. Read-outs that look alike come from different tables or passages of the source.

Tests used:
[1] = system: L1210 Leukemia Cells; experiment: In vitro activity of CL-1565-A against L1210 leukemia cells; format: cell-based; settings: Mus musculus, read-out: ID50 (the source's name)
[2] = system: P388 Lymphatic Leukemia; experiment: In vivo antitumor activity against P388 lymphatic leukemia in mice
Excerpt: In Vivo Antitumor Activity of CL-1565-A Against P388 Lymphatic Leukemia in Mice
The test method used is based on that described in Cancer Chemother. Reports 3:1-87 (part 3). 1972.

[3] = system: Saccharomyces cervisiae; experiment: Antifungal activity, paper disk zone of inhibition; format: cell-based; settings: 12.7 mm paper disks, 500 ug/ml, overnight at 28° C., read-out: Zone diameter
Description: (§1) Paper disks (12.7 mm in diameter) impregnated with an aqueous solution containing 500 ug of CL-1565-A/ml were placed on a layer of agar inoculated with the indicated microorganisms. After incubation overnight at 28° C., the following zones of inhibition were observed.

[4] = system: Saccharomyces italicus; experiment: Antifungal activity, paper disk zone of inhibition; format: cell-based; settings: 12.7 mm paper disks, 500 ug/ml, overnight at 28° C.; read-out: Zone diameter
Description: as §1

[5] = Stability in aqueous solution (HPLC assay); format: physicochemical; settings: for remaining at 168 h / remaining at 336 h / remaining at 552 h / remaining at 48 h: aqueous solution, read-out: % CL-1565-A Remaining; for remaining at 168 h: 7 days; for remaining at 336 h: 14 days; for remaining at 48 h: 2 days
Description: ^b Solutions prepared by adding sodium ascorbate to solutions of
CL1565-A to yield an equimolar concentration.
(§2) CL-1565-A content was assayed by HPLC using a uBondapak C-18 silica gel column (Waters Assoc.) and 0.05 M pH 6.8 sodium phosphate buffer--acetonitrile (89:11) as the mobile phase, at a flow rate of 2 mL/minute. The retention time of CL-1565-A in this system is approximately 4.7 minutes. Solid samples were reconstituted in 100 mL of water immediately prior to HPLC assay. Solutions of CL-1565-A were diluted to a final concentration of 300 ug/mL with water prior to assay.

[6] = Stability in solid state form (HPLC assay); format: physicochemical; settings: for remaining at 168 h / remaining at 504 h / remaining at 840 h: Table 1, solid state; for remaining at 168 h: 1 week; for remaining at 168 h / remaining at 504 h / remaining at 840 h / remaining at 2160 h / remaining at 3600 h / remaining at 6480 h / remaining at 16560 h: read-out: % CL-1565-A Remaining; for remaining at 504 h: 3 weeks; for remaining at 840 h: 5 weeks; for remaining at 2160 h / remaining at 3600 h / remaining at 6480 h / remaining at 16560 h: Table 3, solid form; for remaining at 2160 h: 3 months; for remaining at 3600 h: 5 months; for remaining at 6480 h: 9 months; for remaining at 16560 h: 23 months
Description: *Samples prepared by lyophilization of 1.5 mL aliquots of an aqueous
solution containing 15 mg of CL1565-A per ml.
^a Samples prepared by lyophilization of 1.5 mL of an aqueous solutio
containing 15 mg/mL of CL1565-A in 6mL serum vials.
^b Samples prepared by mixing CL1565-A and sodium ascorbate (1:1 mola
ratio) in solution prior to lyophilization.
as §2

[7] = Table 2, aqueous solution 5 mg/mL, 5° C.
[8] = Table 2, aqueous solution 5 mg/mL, 25° C.
[9] = Table 2, aqueous solution 15 mg/mL, 5° C.
[10] = Table 2, aqueous solution 15 mg/mL, 25° C.

## CC(O)(C=CC1CC=CC(=O)O1)C(CC(O)C=CC=CC=CCO)OP(=O)(O)O (stereo not shown) [CL-1565-A]
[1]
  IC50: 0.078 µg/mL (≈ 0.181 µM)
[2]; 1.1 mg/kg/day, test-1
  T/C × 100: 170
[2]; 1.1 mg/kg/day, test-2
  T/C × 100: 139
[2]; 2.1 mg/kg/day, test-1
  T/C × 100: 173
[2]; 2.1 mg/kg/day, test-2
  T/C × 100: 157
[2]; 4.3 mg/kg/day, test-1
  T/C × 100: 170
[2]; 4.3 mg/kg/day, test-2
  T/C × 100: 172
[2]; 6.3 mg/kg/day, test-3
  T/C × 100: 142
[2]; 8.5 mg/kg/day, test-1
  T/C × 100: 256
[2]; 8.5 mg/kg/day, test-2
  T/C × 100: 209
[2]; 12.5 mg/kg/day, test-3
  T/C × 100: 150
[2]; 17 mg/kg/day, test-1
  T/C × 100: 256
[2]; 17 mg/kg/day, test-2
  T/C × 100: 248
[2]; 25 mg/kg/day, test-3
  T/C × 100: 174
[3]
  zone of inhibition at 500 µg/mL: 25 mm
[4]
  zone of inhibition at 500 µg/mL: 17 mm
[5]; [7]
  remaining at 168 h: 92%
  remaining at 336 h: 83%
[5]; Table 2, aqueous solution 5 mg/mL, 5° C., 23 days
  remaining at 552 h: 76%
[5]; [8]
  remaining at 168 h: 77%
  remaining at 336 h: 63%
[5]; Table 2, aqueous solution 5 mg/mL, 25° C., 23 days
  remaining at 552 h: 45%
[5]; [9]
  remaining at 168 h: 81%
  remaining at 336 h: 76%
[5]; Table 2, aqueous solution 15 mg/mL, 5° C., 23 days
  remaining at 552 h: 66%
[5]; [10]
  remaining at 168 h: 67%
  remaining at 336 h: 55%
[5]; Table 2, aqueous solution 15 mg/mL, 25° C., 23 days
  remaining at 552 h: 42%
[5]; Table 2, aqueous solution 15 mg/mL, 37° C.
  remaining at 168 h: 35%
[5]; Table 4, aqueous solution 15 mg/mL, 5° C.
  remaining at 48 h: 90%
[5]; Table 4, aqueous solution 15 mg/mL, 5° C., 23 days
  remaining at 552 h: 66%
[5]; Table 4, aqueous solution 15 mg/mL, 25° C.
  remaining at 48 h: 87%
[5]; Table 4, aqueous solution 15 mg/mL, 25° C., 23 days
  remaining at 552 h: 42%
[5]; water, 23 days, 15 mg/mL in aqueous solution, read-out: decomposition
  degraded at 552 h: 48%
[6]; 5° C.
  remaining at 168 h: 100%
  remaining at 504 h: 100%
  remaining at 840 h: 100%
[6]; 25° C.
  remaining at 168 h: 87%
  remaining at 504 h: 77%
  remaining at 840 h: 69%
[6]; 37° C.
  remaining at 168 h: 70%
  remaining at 504 h: 26%
[6]; -15° C.
  remaining at 168 h: 100%
  remaining at 504 h: 100%
  remaining at 840 h: 100%
[6]; 5°
  remaining at 2160 h: 88%
  remaining at 3600 h: 86%
  remaining at 6480 h: 79%
  remaining at 16560 h: 74%
[6]; 25°
  remaining at 2160 h: 61%
[6]; -15°
  remaining at 2160 h: 100%
  remaining at 3600 h: 100%
  remaining at 6480 h: 100%
  remaining at 16560 h: 100%
[6]; five weeks at 25° C., read-out: decomposition
  degraded at 840 h: 31%
